# Laboratory results taken from the supplement of paper PMC10307832.
# What was measured:
# Assay in all cases: relative viability (nuclei count vs DMSO), 5 days (fraction); higher = more cells survive
# LCLC-97TM1 = system: LCLC-97TM1
# Summary of the method: (§1)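 Relative viability divides the nuclei count in treated wells by that in vehicle wells. Lung cancer cell lines were seeded in 1536-well plates, dosed by pin tool the next day, and fixed and stained after 5 days in one step with final 0.05% Triton X-100, 1% formaldehyde and 1 ug/ml Hoechst. Dosing was a single drug or a fixed anchor-drug dose plus five library-drug doses (not always all listed) in √10 steps, and values are medians of duplicate plates imaged at 4×.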
# HARA = system: HARA
# Summary of the method: as §1
# NCI-H1793 = system: NCI-H1793
# Summary of the method: as §1
# NCI-H1666 = system: NCI-H1666
# Summary of the method: as §1
# H3255 = system: H3255
# Summary of the method: as §1
# NCI-H441 = system: NCI-H441
# Summary of the method: as §1
# HOP-62 = system: HOP-62
# Summary of the method: as §1
# NCI-H596 = system: NCI-H596
# Summary of the method: as §1
# LXF-289 = system: LXF-289
# Summary of the method: as §1
# NCI-H2087 = system: NCI-H2087
# Summary of the method: as §1
# COR-L23 = system: COR-L23
# Summary of the method: as §1
# NCI-H1437 = system: NCI-H1437
# Summary of the method: as §1
# EPLC-272H = system: EPLC-272H
# Summary of the method: as §1
# NCI-H1650 = system: NCI-H1650
# Summary of the method: as §1
# NCI-H1395 = system: NCI-H1395
# Summary of the method: as §1
# ChaGo-K-1 = system: ChaGo-K-1
# Summary of the method: as §1
# PC-14 = system: PC-14
# Summary of the method: as §1
# HCC-78 = system: HCC-78
# Summary of the method: as §1
# NCI-H2085 = system: NCI-H2085
# Summary of the method: as §1
# NCI-H3122 = system: NCI-H3122
# Summary of the method: as §1
# NCI-H2126 = system: NCI-H2126
# Summary of the method: as §1
# NCI-H1944 = system: NCI-H1944
# Summary of the method: as §1
# NCI-H661 = system: NCI-H661
# Summary of the method: as §1
compound,measurement,setting,value
Cc1csc(=NC2CCCCC2)n1/N=C/c1ccc(O)c(O)c1O [MIM1] + Cc1cc(Nc2cc(N3CCN(C)CC3)nc(Sc3ccc(NC(=O)C4CC4)cc3)n2)n[nH]1 [Tozasertib] (partner 0.1 µM),relative viability,LCLC-97TM1; first compound 0.2 µM,0.285
same,relative viability,LCLC-97TM1; first compound 0.6325 µM,0.237
same,relative viability,LCLC-97TM1; first compound 2 µM,0.292
same,relative viability,LCLC-97TM1; first compound 6.325 µM,0.192
same,relative viability,LCLC-97TM1; first compound 20 µM,0.109
same,relative viability,HARA; first compound 0.2 µM,0.101
same,relative viability,HARA; first compound 2 µM,0.0957
same,relative viability,HARA; first compound 6.325 µM,0.112
same,relative viability,HARA; first compound 20 µM,0.0634
same,relative viability,NCI-H1793; first compound 0.2 µM,0.405
same,relative viability,NCI-H1793; first compound 2 µM,0.435
same,relative viability,NCI-H1793; first compound 6.325 µM,0.298
same,relative viability,NCI-H1793; first compound 20 µM,0.34
same,relative viability,NCI-H1666; first compound 0.2 µM,0.618
same,relative viability,NCI-H1666; first compound 0.6325 µM,0.625
same,relative viability,NCI-H1666; first compound 2 µM,0.575
same,relative viability,NCI-H1666; first compound 6.325 µM,0.47
same,relative viability,NCI-H1666; first compound 20 µM,0.446
same,relative viability,H3255; first compound 0.2 µM,0.526
same,relative viability,H3255; first compound 0.6325 µM,0.54
same,relative viability,H3255; first compound 2 µM,0.601
same,relative viability,H3255; first compound 6.325 µM,0.537
same,relative viability,H3255; first compound 20 µM,0.277
same,relative viability,NCI-H441; first compound 0.2 µM,0.675
same,relative viability,NCI-H441; first compound 2 µM,0.599
same,relative viability,NCI-H441; first compound 6.325 µM,0.376
same,relative viability,NCI-H441; first compound 20 µM,0.312
same,relative viability,HOP-62; first compound 0.2 µM,0.38
same,relative viability,HOP-62; first compound 0.6325 µM,0.378
same,relative viability,HOP-62; first compound 2 µM,0.298
same,relative viability,HOP-62; first compound 6.325 µM,0.335
same,relative viability,HOP-62; first compound 20 µM,0.184
same,relative viability,NCI-H596; first compound 0.2 µM,0.929
same,relative viability,NCI-H596; first compound 0.6325 µM,0.931
same,relative viability,NCI-H596; first compound 2 µM,0.817
same,relative viability,NCI-H596; first compound 6.325 µM,0.872
same,relative viability,NCI-H596; first compound 20 µM,0.782
same,relative viability,LXF-289; first compound 0.2 µM,0.167
same,relative viability,LXF-289; first compound 0.6325 µM,0.217
same,relative viability,LXF-289; first compound 2 µM,0.198
same,relative viability,LXF-289; first compound 6.325 µM,0.181
same,relative viability,LXF-289; first compound 20 µM,0.117
same,relative viability,NCI-H2087; first compound 0.2 µM,0.26
same,relative viability,NCI-H2087; first compound 0.6325 µM,0.284
same,relative viability,NCI-H2087; first compound 2 µM,0.249
same,relative viability,NCI-H2087; first compound 6.325 µM,0.22
same,relative viability,NCI-H2087; first compound 20 µM,0.2
same,relative viability,COR-L23; first compound 0.2 µM,0.184
same,relative viability,COR-L23; first compound 0.6325 µM,0.218
same,relative viability,COR-L23; first compound 2 µM,0.182
same,relative viability,COR-L23; first compound 6.325 µM,0.146
same,relative viability,COR-L23; first compound 20 µM,0.152
same,relative viability,NCI-H1437; first compound 0.2 µM,0.395
same,relative viability,NCI-H1437; first compound 0.6325 µM,0.434
same,relative viability,NCI-H1437; first compound 2 µM,0.437
same,relative viability,NCI-H1437; first compound 6.325 µM,0.346
same,relative viability,NCI-H1437; first compound 20 µM,0.197
same,relative viability,EPLC-272H; first compound 0.2 µM,0.425
same,relative viability,EPLC-272H; first compound 0.6325 µM,0.226
same,relative viability,EPLC-272H; first compound 2 µM,0.219
same,relative viability,EPLC-272H; first compound 6.325 µM,0.372
same,relative viability,EPLC-272H; first compound 20 µM,0.124
same,relative viability,NCI-H1650; first compound 0.2 µM,0.529
same,relative viability,NCI-H1650; first compound 0.6325 µM,0.411
same,relative viability,NCI-H1650; first compound 2 µM,0.282
same,relative viability,NCI-H1650; first compound 6.325 µM,0.322
same,relative viability,NCI-H1650; first compound 20 µM,0.133
same,relative viability,NCI-H1395; first compound 0.2 µM,0.742
same,relative viability,NCI-H1395; first compound 0.6325 µM,0.791
same,relative viability,NCI-H1395; first compound 2 µM,0.784
same,relative viability,NCI-H1395; first compound 6.325 µM,0.68
same,relative viability,NCI-H1395; first compound 20 µM,0.374
same,relative viability,ChaGo-K-1; first compound 0.2 µM,0.246
same,relative viability,ChaGo-K-1; first compound 0.6325 µM,0.232
same,relative viability,ChaGo-K-1; first compound 2 µM,0.204
same,relative viability,ChaGo-K-1; first compound 6.325 µM,0.196
same,relative viability,ChaGo-K-1; first compound 20 µM,0.155
same,relative viability,PC-14; first compound 0.2 µM,0.526
same,relative viability,PC-14; first compound 0.6325 µM,0.593
same,relative viability,PC-14; first compound 2 µM,0.413
same,relative viability,PC-14; first compound 6.325 µM,0.502
same,relative viability,PC-14; first compound 20 µM,0.357
same,relative viability,HCC-78; first compound 0.2 µM,0.461
same,relative viability,HCC-78; first compound 0.6325 µM,0.288
same,relative viability,HCC-78; first compound 2 µM,0.454
same,relative viability,HCC-78; first compound 6.325 µM,0.39
same,relative viability,HCC-78; first compound 20 µM,0.337
same,relative viability,NCI-H2085; first compound 0.2 µM,0.781
same,relative viability,NCI-H2085; first compound 0.6325 µM,0.755
same,relative viability,NCI-H2085; first compound 2 µM,0.763
same,relative viability,NCI-H2085; first compound 6.325 µM,0.598
same,relative viability,NCI-H2085; first compound 20 µM,0.533
same,relative viability,NCI-H3122; first compound 0.2 µM,0.446
same,relative viability,NCI-H3122; first compound 0.6325 µM,0.464
same,relative viability,NCI-H3122; first compound 2 µM,0.366
same,relative viability,NCI-H3122; first compound 6.325 µM,0.155
same,relative viability,NCI-H3122; first compound 20 µM,0.0965
same,relative viability,NCI-H2126; first compound 0.2 µM,0.831
same,relative viability,NCI-H2126; first compound 0.6325 µM,0.832
same,relative viability,NCI-H2126; first compound 2 µM,0.846
same,relative viability,NCI-H2126; first compound 6.325 µM,0.738
same,relative viability,NCI-H2126; first compound 20 µM,0.403
same,relative viability,NCI-H1944; first compound 0.2 µM,0.226
same,relative viability,NCI-H1944; first compound 0.6325 µM,0.288
same,relative viability,NCI-H1944; first compound 2 µM,0.235
same,relative viability,NCI-H1944; first compound 6.325 µM,0.231
same,relative viability,NCI-H1944; first compound 20 µM,0.143
same,relative viability,NCI-H661; first compound 0.2 µM,0.35
same,relative viability,NCI-H661; first compound 0.6325 µM,0.367
same,relative viability,NCI-H661; first compound 2 µM,0.361
same,relative viability,NCI-H661; first compound 6.325 µM,0.363
same,relative viability,NCI-H661; first compound 20 µM,0.285
